Tests used:
[1] = system: BALB/C mice, TNP-OVA sensitized; experiment: reporter antigen popliteal lymph node (PLN) assay; assay type: in vivo, mouse; details: for average number of lymphocytes in PLNs: day 5
Source text: Analysis of immune suppression. Glucocorticoid steroids such as dexamethasone or hydrocortisone are typically immune suppressive and have significant toxicities associated with their use. Immune suppression was examined in a reporter antigen popliteal lymph node assay in mice essentially as previously described (C. Goebel et al., Inflamm. Res., 45(Suppl. 2):S85-S90, 1996; R. Pieters et al., Environmental Health Perspectives 107(Suppl. 5):673-677,1999). […] In this protocol, the vehicle was 0.1% carboxymethylcellulose, 0.9% saline, 2% tween 80 and 0.05% phenol, which contained 17α-ethynylandrost-5-ene-3β,7β,17β-triol in suspension in drug treated animals. Assessment of activity included (1) measuring suppression of numbers of total lymphocytes, antigen specific IgM, IgG1 and IgG2a antibody secreting cells (ASC) (ELISPOT assay) in popliteal lymph node cells; (2) analysis of cell surface marker (CD4, CD8, CD19, F480, CD80, CD86) expression by flow cytometry of living cells in suspension; and (3) IL-4, TNFα and IFNγ production by lymphocytes in vitro (ELISA).
Groups (n=5 per group) of specific pathogen free BALB/C mice were used. The Positive control group was treated with vehicle (oral gavage) and 5 μg/day dexamethasone by subcutaneous injection to induce immune suppression. Vehicle control animals (negative control) were treated with vehicle alone (oral gavage). One group of animals was treated with 17α-ethynylandrost-5-ene-3β,7β,17β-triol at 0.1 mg/day by oral gavage. Another group was treated with 1 mg/day of 17α-ethynylandrost-5-ene-3β,7β,17β-triol was administered to the animals oral gavage. The results were analyzed by two-tailed Student's t-test with equal variance. The animals were injected in the right hind footpad with 50 μL of freshly prepared sensitizing dose of TNP-OVA. Dexamethasone (decadron phosphate injection; dexamethasone sodium phosphate) was administered by subcutaneous injection into the nape of the neck daily, immediately following sensitization with TNP-OVA. 17α-Ethynylandrost-5-ene-3β,7β,17β-triol was given immediately afterwards by gavage. Five days after injection of TNP-OVA, blood was drawn by orbital puncture, and the mice were euthanized by cervical dislocation and popliteal lymph nodes were removed and separated from adherent fatty tissue. Single cell suspensions were prepared, resuspended in 1 mL PBS-BSA (1%) and counted. Cell numbers, IL-4, IL-5 and IFNγ were measured.

DIO mice = experiment: diet induced obesity (DIO) mouse, OGTT; assay type: in vivo; details: 20, 40 or 80 mg/kg twice a day oral gavage up to 28 days
Source text: Diet induced obesity (DIO) mouse hyperglycemia treatment. The effect of a drug to enhance peripheral sensitivity to insulin can be studied in a mouse model in which a state of insulin resistance is attained by feeding the animals a fat-enriched diet (60% of total caloric intake) for at least 6 weeks. This model has been described, e.g., J. N. Thupari et al., Proc. Natl. Acad. Sci. USA, 99(14):9498-9502, 2002, H. Xu et al., J. Clin. Invest., 112:1821-1830, 2003, H. Takahashi et al., J. Biol. Chem., 278(47):46654-46660, 2003.
For these studies, animals of approximately 4 weeks of age were divided into groups of 10 animals each and then treated with a vehicle control (no drug) or 17α-ethynylandrost-5-ene-3β,7β,17β-triol by oral gavage. The 17α-ethynylandrost-5-ene-3β,7β,17β-triol was administered at 20 mg/kg, 40 mg/kg or 80 mg/kg twice a day for up to 28 days. At day 14 and day 28 during the dosing period an OGTT was performed.

[2] = system: 8 week old db/db diabetic mice; experiment: hyperinsulinemic-euglycemic clamp in db/db mice; assay type: in vivo, mouse; details: oral gavage 14 days; insulin 10 mU/kg/min
Experimental: Glucose lowering in 8 week old db/db diabetic mice. The hyperinsulinemic-euglycemic clamp protocol was conducted to measure insulin sensitivity in vivo. In this procedure, insulin was administered to raise the insulin concentration while glucose was infused to maintain euglycemia or a fixed, normal blood glucose level (about 180 mg/dL). […] The objective of this protocol was to investigate characterize the capacity of 17α-ethynylandrost-5-ene-3β,7β,17β-triol and androst-5-ene-3β,7β,16α,17β-tetrol to ameliorate systemic insulin resistance and improve whole body glucose disposal in the hyperinsulinemic-euglycemic clamp model. The degree of skeletal muscle and hepatic insulin sensitivity and tissue specific glucose uptake were also assessed. The animals were dosed daily by oral gavage for 14 days. On Day 10 of treatment catheters were implanted in the carotid artery and jugular vein. On the day of the clamp (day 14) the compound was administered at 7:30 am.
Body weight and glucose concentration were assessed on day 0, 7 and day 14 of treatment. On day 14 a euglycemic hyperinsulinemic clamp was performed. […] Plasma ^14C 2-deoxyglucose was assessed at 122, 125, 130, 135, 145 min. […]
Analysis was conducted as follows. Plasma samples were deproteinized with Ba(OH)2 (0.3 N) and ZnSO4 (0.3 N), dried and radioactivity was assessed on scintillation counter (Packard TRICARB 2900 TR, Meriden, Conn.). […] One supernatant was directly counted to determine radioactivity from both [14C] […] A second aliquot was treated with Ba(OH)2 and ZnSO4 to remove ^14C DGP and any tracer incorporated into glycogen and then counted to determine radioactivity from free [^14C]DG(2). [^14C]DGP was calculated as the difference between the two aliquots. […] Rg, an index of tissue specific glucose uptake was calculated as previously described (E. W. Kraegen et al., Am. J. Physiol., 248:E353-E362, 1985). Whole body glucose turnover was calculated as the ratio of the ^3H glucose infusion rate (dpm/kg/min) and arterial plasma glucose specific activity (dpm/mg). […]

SMILES: C#C[C@]1(O)CC[C@H]2[C@@H]3[C@@H](O)C=C4C[C@@H](O)CC[C@]4(C)[C@H]3CC[C@@]21C [17α-ethynylandrost-5-ene-3β,7β,17β-triol]
- average number of lymphocytes in PLNs ([1]; 0.1 mg/day by oral gavage): 11.1×10^6 lymphocytes per lymph node
- average number of lymphocytes in PLNs ([1]; 1 mg/day by oral gavage): 8.2×10^6 lymphocytes per lymph node
- IFNγ, IL-4 and IL-5 levels compared to the vehicle control group ([1]; compound 1.0 mg/day and 0.1 mg/day oral, dexamethasone 5 μg/day s.c.): increased
- glucose intolerance (OGTT glycemic excursion) compared to vehicle (DIO mice): notably reduced glucose intolerance
- glucose infusion rate compared to the vehicle control [2]: increased the glucose infusion rate
